Drawing on patent US20240279227A1, “FUSED HETEROCYCLIC DERIVATIVES” (Janssen Sciences Ireland Unlimited Company, priority 2021, published 2024), this text covers half-life, EC50 and CC50 for 13 compounds.

Data set [1] is described as follows: Human liver microsome stability. It is filed as in vitro ADME. As to conditions: human, pooled human liver microsomes, pH 7.4, pooled human liver microsomes 0.5 mg/mL, 1 μM compound, NADPH 1 mM, pH 7.4, 37° C., 0-60 min; read-out: HLM Metabolism t1/2. On the procedure: Pooled human liver microsomes (0.5 mg/mL) was pre-incubated with 1 μM test compounds or control compounds (verapamil, warfarin and cerivastatin) in 0.1 M phosphate buffer pH 7.4 containing 1 mM MgCl2 at 37° C. The final concentration of DMSO and acetonitrile are 0.05% and 0.2%, respectively. All incubations are performed singularly for each compound. NADPH was added to initiate the reaction with the final concentration of 1 mM and the final incubation volume of 400 μL.
At 6 time points (0, 5, 10, 20, 40 and 60 min) reactions were stopped by the removal of 50 μL of the incubation mixture into plates containing acetonitrile at a of 1:3 (v:v). The plates were centrifuged at 3000 rpm for 10 min at 4° C. to precipitate the protein. Following protein precipitation, the sample supernatants were combined in cassettes of up to 8 compounds. The internal standard was added (1:1 supernatant to internal standard solution) and samples were analyzed using standard LC-MS conditions.
From a plot of ln peak area ratio (compound peak area/internal standard peak area) against time, the gradient of the line is determined. Subsequently, half-life is calculated using the equations below: […]
In general terms: Liver microsomes are a subcellular fraction often used to study metabolism.

In a further data set the test system is HBV. In words: Anti-HBV activity in HepG2.117 cell line (intracellular HBV DNA, real-time PCR). Format: cell-based, hepatitis B virus. To be noted: HepG2.117 cells, HBV replication induced, 3 days of treatment, intracellular HBV DNA by real-time PCR. On the procedure:
The anti HBV activity was measured using the HepG2.117 cell line, a stable, inducibly HBV producing cell line, which replicates HBV in the absence of doxycycline (Tet-off system). The HepG2 cell line is available from ATCCR under number HB-8065. Transfection of the HepG2 cell line can be as described in Sun and Nassal 2006 Journal of Hepatology 45 (2006) 636-645 “Stable HepG2-and Huh7-based human hepatoma cell lines for efficient regulated expression of infectious hepatitis B virus”.
For the antiviral assay, HBV replication was induced, followed by a treatment with serially diluted compound in 96-well plates. After 3 days of treatment, the antiviral activity was determined by quantification of intracellular HBV DNA using real-time PCR and an HBV specific primer set and probe.
Background: Quantitative PCR measures a nucleic acid by following its amplification.

Data set [2] is described as follows: Cytotoxicity, ATPlite Luminescence Assay. It is filed as cell-based, human. As to conditions: human, HepG2 or HepG2.117 cells, 3-days incubation unless marked with *, ATPlite viability. On the procedure:
Cytotoxicity of the compounds was tested using HepG2 or HepG2.117 cells, incubated for 3 or 4 days in the presence of compounds. The viability of the cells was assessed using the PERKIN ELMER ATPlite Luminescence Assay System.”
(In ATP-based viability assays light output follows the ATP content of the culture.)

The mark [3] stands for this setting: Hepatitis B virus, HepG2.117, 72 h.

Consider `C[C@@H]1Cc2nn3c(c2CN1C(=O)c1ccc(Cl)c(C#N)c1)C(=O)N([C@H](C)c1ccc(OC(F)F)cc1)C[C@H]3C(=O)N(C)C` [Compound 27A, (3R,7S)-2-(4-Chloro-3-cyanobenzoyl)-9-((R)-1-(4-(difluoromethoxy)phenyl)ethyl)-N,N,3-trimethyl-10-oxo-1,2,3,4,7,8,9,10-octahydropyrido[4′,3′:3,4]pyrazolo[1,5-a]pyrazine-7-carboxamide], for which the half-life at 1 μM in data set [1] was greater than 3 h. This compound showed a 50% effective concentration (EC50) with HBV (setting [3]) of 0.031 µM. This compound also returned a half-maximal cytotoxic concentration (CC50) in data set [2] greater than 50 µM.

In the case of `CNC(=O)[C@@H]1CN(C(C)c2ccc(OC)nc2)C(=O)c2c3c(nn21)C[C@@H](C)N(C(=O)c1ccc(Cl)c(Cl)c1)C3` (single isomer, unassigned) [Compound 31A, (3R,7S)-2-(3,4-Dichlorobenzoyl)-9-((R*)-1-(6-methoxypyridin-3-yl)ethyl)-N,3-dimethyl-10-oxo-1,2,3,4,7,8,9,10-octahydropyrido[4′,3′:3,4]pyrazolo[1,5-a]pyrazine-7-carboxamide], the half-life at 1 μM in data set [1] is greater than 3 h. Besides, the response in the data set with HBV was half-maximal at 0.066 µM (EC50). The compound also gave a CC50 in data set [2] greater than 50 µM.

In the case of `C[C@@H]1Cc2nn3c(c2CN1C(=O)c1ccc(Cl)c(Cl)c1)C(=O)N([C@H](C)c1ccc(OC(F)F)cc1)CC3` [Ref 1, reference compound], the half-life at 1 μM in data set [1] is 0.257 h. This compound yielded an EC50 with HBV (setting [3]) of 0.069 µM. The same compound came in with a CC50 in data set [2] greater than 50 µM.

For `CC(c1ccc(C(F)(F)F)nc1)N1C[C@@H](C(=O)N(C)C)n2nc3c(c2C1=O)CN(C(=O)c1ccc(Cl)c(Cl)c1)[C@H](C)C3` (single isomer, unassigned) [Compound 8B, (3R,7S)-2-(3,4-dichlorobenzoyl)-N,N,3-trimethyl-10-oxo-9-((S*)-1-(6-(trifluoromethyl)pyridin-3-yl)ethyl)-1,2,3,4,7,8,9,10-octahydropyrido[4′,3′:3,4]pyrazolo[1,5-a]pyrazine-7-carboxamide], the half-life at 1 μM in data set [1] is greater than 3 h. The compound also displayed a concentration for a half-maximal effect (EC50) with HBV (setting [3]) of 0.071 µM. The same compound registered a CC50 in data set [2] greater than 50 µM.

Consider `CNC(=O)[C@@H]1CN([C@@H](C)c2ccc(C(F)(F)F)nc2)C(=O)c2c3c(nn21)C[C@@H](C)N(C(=O)c1ccc(Cl)c(Cl)c1)C3` [Compound 13B, (3R,7S)-2-(3,4-dichlorobenzoyl)-N,3-dimethyl-10-oxo-9-((S)-1-(6-(trifluoromethyl)pyridin-3-yl)ethyl)-1,2,3,4,7,8,9,10-octahydropyrido[4′,3′:3,4]pyrazolo[1,5-a]pyrazine-7-carboxamide], for which the half-life at 1 μM in data set [1] was greater than 3 h. This compound showed a 50% effective concentration (EC50) with HBV (setting [3]) of 0.033 µM. In data set [2], this compound gave a CC50 of 46.8 µM.

As for `CNC(=O)[C@@H]1CN([C@@H](C)c2ccc(OC(F)F)cc2)C(=O)c2c3c(nn21)C[C@@H](C)N(C(=O)c1ccc(Cl)c(C(F)F)c1)C3` [Compound 25, (3R,7S)-2-(4-Chloro-3-(difluoromethyl)benzoyl)-9-((S)-1-(4-(difluoromethoxy)phenyl)ethyl)-N,3-dimethyl-10-oxo-1,2,3,4,7,8,9,10-octahydropyrido[4′,3′:3,4]pyrazolo[1,5-a]pyrazine-7-carboxamide], in data set [1], the half-life at 1 μM is 1.3 h. In the data set on HBV (setting [3]), this compound registered a half-maximal effective concentration (EC50) of 0.01 µM. In data set [2], this compound gave a CC50 greater than 50 µM.

With `CNC(=O)[C@@H]1CN(C(C)c2ccc(S(C)(=O)=O)cc2)C(=O)c2c3c(nn21)C[C@@H](C)N(C(=O)c1ccc(Cl)c(C(F)(F)F)c1)C3` (single isomer, unassigned) [Compound 19A, (3R,7S)-2-(4-Chloro-3-(trifluoromethyl)benzoyl)-N,3-dimethyl-9-((R*)-1-(4-(methylsulfonyl)phenyl)ethyl)-10-oxo-1,2,3,4,7,8,9,10-octahydropyrido[4′,3′:3,4]pyrazolo[1,5-a]pyrazine-7-carboxamide], the half-life at 1 μM in data set [1] is greater than 3 h. This compound had a concentration for a half-maximal effect (EC50) in the data set on HBV of 0.12 µM. Moreover, the half-maximal cytotoxic concentration (CC50) in data set [2] is greater than 50 µM.

On to `CNC(=O)[C@@H]1CN(C(C)c2ccc(OC(F)F)c(F)c2)C(=O)c2c3c(nn21)C[C@@H](C)N(C(=O)c1ccc(Cl)c(Cl)c1)C3` (single isomer, unassigned) [Compound 24A, (3R,7S)-2-(3,4-Dichlorobenzoyl)-9-((R*)-1-(4-(difluoromethoxy)-3-fluorophenyl)ethyl)-N,3-dimethyl-10-oxo-1,2,3,4,7,8,9,10-octahydropyrido[4′,3′:3,4]pyrazolo[1,5-a]pyrazine-7-carboxamide], for which the half-life at 1 μM in data set [1] is greater than 3 h. Besides, a half-maximal response with HBV (EC50) required 0.054 µM. Further, the CC50 in data set [2] worked out at 20.6 µM.

In the case of `CNC(=O)[C@@H]1CN([C@@H](C)c2ccc(S(C)(=O)=O)cc2)C(=O)c2c3c(nn21)C[C@@H](C)N(C(=O)c1ccc(Cl)c(Cl)c1)C3` [Compound 18B, (3R,7S)-2-(3,4-Dichlorobenzoyl)-N,3-dimethyl-9-((S)-1-(4-(methylsulfonyl)phenyl)ethyl)-10-oxo-1,2,3,4,7,8,9,10-octahydropyrido[4′,3′:3,4]pyrazolo[1,5-a]pyrazine-7-carboxamide], the half-life at 1 μM in data set [1] is greater than 3 h. The same compound showed an EC50 in the data set on HBV (setting [3]) of 0.037 µM. This compound also displayed a CC50 in data set [2] greater than 50 µM.

On to `CNC(=O)[C@@H]1CN([C@H](C)c2ccc(C(F)(F)F)nc2)C(=O)c2c3c(nn21)C[C@@H](C)N(C(=O)c1ccc(Cl)c(Cl)c1)C3` [Compound 13A, (3R,7S)-2-(3,4-Dichlorobenzoyl)-N,3-dimethyl-10-oxo-9-((R)-1-(6-(trifluoromethyl)pyridin-3-yl)ethyl)-1,2,3,4,7,8,9,10-octahydropyrido[4′,3′:3,4]pyrazolo[1,5-a]pyrazine-7-carboxamide], for which the half-life at 1 μM in data set [1] is greater than 3 h. This compound also displayed a concentration for a half-maximal effect (EC50) in the data set on HBV (setting [3]) of 0.34 µM. The 50% cytotoxic concentration (CC50) in data set [2] was greater than 50 µM.

Consider `C[C@@H]1Cc2nn3c(c2CN1C(=O)c1ccc(Cl)c(Cl)c1)C(=O)N([C@@H](C)c1ccc(OC(F)F)cc1)CC3` [Ref 2, reference compound], for which, in data set [1], the half-life at 1 μM is 0.117 h. This compound also displayed an EC50 with HBV (setting [3]) of 0.026 µM. Further, the cytotoxic concentration (CC50) in data set [2] amounted to 19.8 µM.

For the compound `CNC(=O)[C@@H]1CN(C(C)c2ccc(C#N)cc2)C(=O)c2c3c(nn21)C[C@@H](C)N(C(=O)c1ccc(Cl)c(Cl)c1)C3` (single isomer, unassigned) [Compound 23A, (3R,7S)-9-((R*)-1-(4-Cyanophenyl)ethyl)-2-(3,4-dichlorobenzoyl)-N,3-dimethyl-10-oxo-1,2,3,4,7,8,9,10-octahydropyrido[4′,3′:3,4]pyrazolo[1,5-a]pyrazine-7-carboxamide], the half-life at 1 μM in data set [1] is greater than 3 h. In the data set with HBV, this compound yielded an EC50 of 0.06 µM. Further, in data set [2], the 50% cytotoxic concentration (CC50) was greater than 50 µM.

As for `CNC(=O)[C@@H]1CN(C(C)c2ccc(C3CC3)nc2)C(=O)c2c3c(nn21)C[C@@H](C)N(C(=O)c1ccc(Cl)c(Cl)c1)C3` (single isomer, unassigned) [Compound 32A, (3R,7S)-9-((R*)-1-(6-Cyclopropylpyridin-3-yl)ethyl)-2-(3,4-dichlorobenzoyl)-N,3-dimethyl-10-oxo-1,2,3,4,7,8,9,10-octahydropyrido[4′,3′:3,4]pyrazolo[1,5-a]pyrazine-7-carboxamide], in data set [1], the half-life at 1 μM was determined as 2.12 h. Besides, it took 0.055 µM to reach a half-maximal effect with HBV (EC50). Also, the CC50 in data set [2] is greater than 50 µM.

A word on the EC50: it is the concentration at which the effect is half-maximal. A low value points to a more potent agent. By CC50 is commonly meant the concentration that lowers cell viability or growth by half. Lower therefore signals greater toxicity to the cells.
